Data from patent US10729688B2, “Hepatitis B antiviral agents” (Enanta Pharmaceuticals, Inc., priority 2018, dated 2020).

Legend:
[1] = Compound toxicity, ATPLite total ATP levels; type: cell-based; settings: human, HepAD38 cells; 15,000 cells/well; three days after compound addition; total ATP levels reduced by 50% relative to no drug controls
Description: (§1) Methods: HepAD38 cells were maintained as previously reported (Ladner et al, Antimicrob. Agents Chemother. 1997, 4, 1715). Briefly, cells were passaged upon attaining confluency in DMEM/F12 media in the presence of 10% FBS, Penn/Strep, 250 μg/mL G418, and 1 ug/ml tetracycline. Compounds were screened by first washing cells three times with PBS to remove tetracycline, and plating in 96 well plates at 35,000 cells/well. Compounds dissolved in DMSO were then diluted 1:200 into wells containing cells. Five days after compound addition, material was harvested for analysis. For an extended 8 day analysis, cells were plated and treated as described above, but media and compound were refreshed on day 2 and day 5 post initial treatment.
Compound toxicity was evaluated by seeding cells at 15,000 cells/well and treating with compound as described above.

HBV = experiment: HepAD38 antiviral assay: reduction of viral product accumulation; type: cell-based; settings: Hepatitis B virus, 120 h; HepAD38 cells, tetracycline removed; harvest five days after compound addition; viral product (virion DNA by qPCR, or HBsAg/HBeAg by ELISA) reduced by 50% relative to no drug controls
Description: as §1
On harvest day, virion DNA was obtained by lysing with Sidestep Lysis and Stabilization Buffer and then quantified via quantitative real time PCR. Commercially available ELISA kits were used to quantitate the viral proteins HBsAg (Alpco) or HbeAg (US Biological) by following the manufacturer's recommended protocol after diluting samples to match the linear range of their respective assays. Irrespective of readout, compound concentrations that reduce viral product accumulation in the cell lysates or supernatants by 50% relative to no drug controls (EC50) are reported; EC50 ranges are as follows: A<0.1 μM; B 0.1-0.2 μM; C>0.2 μM.

Q: Which CC50 at 3 days [1] does the source give for `O=C(Nc1cc(F)c(F)c(F)c1)N1Cc2c(N3C(=O)O[C@@H]4CCCC[C@@H]43)cnn2[C@@H]2CCC[C@@H]21` [Example 53] here?
A: > 25000 nM

Q: And the EC50 (HBV)?
A: < 100 nM

Q: What does the source list for `C[C@@H]1N(c2cnn3c2CN(C(=O)Nc2ccc(F)c(Cl)c2)[C@H]2CCC[C@H]23)C(=O)OC1(C)C` [Example 18]?
A: CC50 at 3 days [1]: > 25000 nM; EC50 (HBV): < 100 nM

Q: With `O=C(Nc1cc(F)c(F)c(F)c1)N1Cc2c(-c3ccc(F)cc3)cnn2[C@@H]2CCC[C@@H]21` [Example 7] as the molecule, how does the EC50 (HBV) read?
A: 100 to 200 nM

Q: For `O=C1OCCN1c1cnn2c1CN(C(=O)Nc1cc(F)c(F)c(F)c1)[C@H]1CCC[C@H]12` [Example 36], which EC50 (HBV) is on record?
A: > 200 nM

Q: Which EC50 (HBV) does the source give for `O=C(Nc1cc(F)c(F)c(F)c1)N1Cc2c(-c3ccc(F)cc3)cnn2[C@H]2CCC[C@H]21` [Example 1] here?
A: > 200 nM

Q: Which EC50 (HBV) does the source give for `CC(C)[C@@H]1N(c2cnn3c2CN(C(=O)Nc2cc(F)c(F)c(F)c2)[C@H]2CCC[C@H]23)C(=O)OC1(C)C` [Example 65] here?
A: < 100 nM

Q: With `O=C(Nc1cc(F)c(F)c(F)c1)N1Cc2c(N3CCCS3(=O)=O)cnn2C[C@@H]1c1ncc[nH]1` [Example 74] as the molecule, how does the EC50 (HBV) read?
A: > 200 nM

Q: Which EC50 (HBV) does the source give for `O=C(Nc1cc(F)c(F)c(F)c1)N1Cc2c(N3CCCS3(=O)=O)cnn2[C@@H]2COC[C@@H]21` [Example 63] here?
A: > 200 nM

Q: With `O=C(Nc1cc(F)c(F)c(F)c1)N1Cc2c(N3CCCS3(=O)=O)cnn2[C@@H]2CCC[C@@H]21` [Example 10] as the molecule, how does the CC50 at 3 days [1] read?
A: > 25000 nM

Q: What about the EC50 (HBV) of the same molecule?
A: < 100 nM

Q: For `CCC(=O)Oc1cnn2c1CN(C(=O)Nc1cc(F)c(F)c(F)c1)[C@H]1CCC[C@H]12` [Example 47], which EC50 (HBV) is on record?
A: > 200 nM

Q: With `O=C(Nc1ccc(F)c(Cl)c1)N1Cc2c(N3CCCS3(=O)=O)cnn2[C@H]2CCC[C@H]21` [Example 6] as the molecule, how does the EC50 (HBV) read?
A: < 100 nM

Q: With `O=C(Nc1ccc(F)c(F)c1)N1Cc2c(N3CCCS3(=O)=O)cnn2CC12CC2` [Example 16] as the molecule, how does the EC50 (HBV) read?
A: > 200 nM

Q: For `O=C1OCCCN1c1cnn2c1CN(C(=O)Nc1cc(F)c(F)c(F)c1)[C@H]1CCC[C@H]12` [Example 66], which EC50 (HBV) is on record?
A: 100 to 200 nM

Q: With `CC(C)C[C@@H]1N(c2cnn3c2CN(C(=O)Nc2cc(F)c(F)c(F)c2)[C@H]2CCC[C@H]23)C(=O)OC1(C)C` [Example 69] as the molecule, how does the EC50 (HBV) read?
A: > 200 nM

Q: For `C[C@H]1COC(=O)N1c1cnn2c1CN(C(=O)Nc1cc(F)c(F)c(F)c1)[C@H]1CCC[C@H]12` [Example 38], which EC50 (HBV) is on record?
A: 100 to 200 nM

Q: Which EC50 (HBV) does the source give for `O=C1CC2(CC2)CN1c1cnn2c1CN(C(=O)Nc1cc(F)c(F)c(F)c1)[C@H]1CCC[C@H]12` [Example 50] here?
A: < 100 nM

Q: For `CC1(C)CCN(c2cnn3c2CN(C(=O)Nc2cc(F)c(F)c(F)c2)[C@H]2CCC[C@H]23)C(=O)O1` [Example 67], which EC50 (HBV) is on record?
A: < 100 nM

Q: For `O=C(Nc1cc(F)c(F)c(F)c1)N1Cc2c(N3C(=O)O[C@H]4CCCC[C@@H]43)cnn2[C@@H]2CCC[C@@H]21` [Example 54], which EC50 (HBV) is on record?
A: < 100 nM

Q: Which EC50 (HBV) does the source give for `COC(=O)Nc1cnn2c1CN(C(=O)Nc1cc(F)c(F)c(F)c1)[C@H]1CCC[C@H]12` [Example 41] here?
A: > 200 nM

Q: With `O=C(Nc1cc(F)c(F)c(F)c1)N1Cc2c(N3CCCS3(=O)=O)cnn2C[C@@H]1c1ccn[nH]1` [Example 76] as the molecule, how does the EC50 (HBV) read?
A: > 200 nM

Q: For `O=C(Nc1cc(F)c(F)c(F)c1)N1Cc2c(N3C(=O)C[C@@H]4CCC[C@@H]43)cnn2[C@@H]2CCC[C@@H]21` [Example 48], which EC50 (HBV) is on record?
A: < 100 nM

Q: With `O=C(Nc1cc(F)c(F)c(F)c1)N1Cc2c(N3CCCS3(=O)=O)cnn2C[C@@H]1c1cnco1` [Example 75] as the molecule, how does the EC50 (HBV) read?
A: 100 to 200 nM

Q: For `O=C(Nc1cc(F)c(F)c(F)c1)N1Cc2c(N3C(=O)OC[C@@H]3c3ccccc3)cnn2[C@@H]2CCC[C@@H]21` [Example 52], which EC50 (HBV) is on record?
A: > 200 nM

Q: Which EC50 (HBV) does the source give for `CC(C)C[C@H]1COC(=O)N1c1cnn2c1CN(C(=O)Nc1cc(F)c(F)c(F)c1)[C@H]1CCC[C@H]12` [Example 68] here?
A: 100 to 200 nM

Q: Which EC50 (HBV) does the source give for `O=C(Nc1cc(F)c(F)c(F)c1)N1Cc2c(N3C(=O)OCC34CC4)cnn2[C@@H]2CCC[C@@H]21` [Example 61] here?
A: 100 to 200 nM

Q: For `O=C(Nc1ccc(F)c(F)c1)N1Cc2c(N3CCCS3(=O)=O)cnn2[C@H]2CCC[C@H]21` [Example 5], which EC50 (HBV) is on record?
A: 100 to 200 nM

Q: For `O=C1OC2(CC2)CN1c1cnn2c1CN(C(=O)Nc1cc(F)c(F)c(F)c1)[C@H]1CCC[C@H]12` [Example 55], which EC50 (HBV) is on record?
A: < 100 nM

Q: Which EC50 (HBV) does the source give for `O=C1CCCN1c1cnn2c1CN(C(=O)Nc1cc(F)c(F)c(F)c1)[C@H]1CCC[C@H]12` [Example 37] here?
A: < 100 nM

Q: With `CCS(=O)(=O)N(C)c1cnn2c1CN(C(=O)Nc1cc(F)c(F)c(F)c1)[C@H]1CCC[C@H]12` [Example 62] as the molecule, how does the EC50 (HBV) read?
A: > 200 nM

Q: Which EC50 (HBV) does the source give for `CCS(=O)(=O)Nc1cnn2c1CN(C(=O)Nc1cc(F)c(F)c(F)c1)[C@H]1CCC[C@H]12` [Example 43] here?
A: > 200 nM

Q: For `O=C(Nc1ccc(F)c(F)c1)N1Cc2c(-c3ccc(F)cc3)cnn2[C@@H]2CCC[C@@H]21` [Example 8], which EC50 (HBV) is on record?
A: < 100 nM

Q: Which EC50 (HBV) does the source give for `O=C1OC2(CCCC2)CN1c1cnn2c1CN(C(=O)Nc1cc(F)c(F)c(F)c1)[C@H]1CCC[C@H]12` [Example 57] here?
A: < 100 nM

Q: Which EC50 (HBV) does the source give for `O=C(Nc1cc(F)c(F)c(F)c1)N1Cc2c(N3CCCS3(=O)=O)cnn2C[C@@H]1c1ccccc1` [Example 71] here?
A: < 100 nM

Q: For `O=C(Nc1cc(F)c(F)c(F)c1)N1Cc2c(N3C(=O)OC[C@@H]3C3CCCC3)cnn2[C@@H]2CCC[C@@H]21` [Example 56], which EC50 (HBV) is on record?
A: 100 to 200 nM

Q: With `O=C(Nc1ccc(F)c(Cl)c1)N1Cc2c(-c3ccc(F)cc3)cnn2[C@@H]2CCC[C@@H]21` [Example 9] as the molecule, how does the EC50 (HBV) read?
A: > 200 nM

Q: With `O=C1OC(C2CCCC2)CN1c1cnn2c1CN(C(=O)Nc1cc(F)c(F)c(F)c1)[C@H]1CCC[C@H]12` (some centres unmarked) [Example 46] as the molecule, how does the EC50 (HBV) read?
A: > 200 nM

Q: Which EC50 (HBV) does the source give for `O=C(Nc1cc(F)c(F)c(F)c1)N1Cc2c(N3CCCS3(=O)=O)cnn2[C@H]2CCC[C@H]21` [Example 4] here?
A: < 100 nM

Q: Which EC50 (HBV) does the source give for `O=C(Nc1cc(F)c(F)c(F)c1)N1Cc2c(N3C(=O)OC[C@@H]3Cc3ccccc3)cnn2[C@@H]2CCC[C@@H]21` [Example 64] here?
A: 100 to 200 nM

Q: For `O=C(Nc1cc(F)c(F)c(F)c1)N1Cc2c(N3C(=O)C[C@H]4CCC[C@H]43)cnn2[C@@H]2CCC[C@@H]21` [Example 49], which EC50 (HBV) is on record?
A: 100 to 200 nM

Q: Which EC50 (HBV) does the source give for `C[C@@H]1CN(c2cnn3c2CN(C(=O)Nc2cc(F)c(F)c(F)c2)[C@H]2CCC[C@H]23)C(=O)O1` [Example 44] here?
A: < 100 nM

Q: Which EC50 (HBV) does the source give for `O=C1OC(c2ccccc2)CN1c1cnn2c1CN(C(=O)Nc1cc(F)c(F)c(F)c1)[C@H]1CCC[C@H]12` (some centres unmarked) [Example 40] here?
A: < 100 nM

Q: Which EC50 (HBV) does the source give for `O=C(Nc1cc(F)c(F)c(F)c1)N1Cc2c(N3C(=O)OC[C@@H]3C3CC3)cnn2[C@@H]2CCC[C@@H]21` [Example 58] here?
A: 100 to 200 nM

Q: Which EC50 (HBV) does the source give for `O=C(Nc1cc(F)c(F)c(F)c1)N1Cc2c(-c3cscn3)cnn2[C@@H]2CCC[C@@H]21` [Example 13] here?
A: < 100 nM

Q: For `O=C(Nc1cc(F)c(F)c(F)c1)N1Cc2c(N3C(=O)O[C@@H]4CCC[C@@H]43)cnn2[C@@H]2CCC[C@@H]21` [Example 39], which EC50 (HBV) is on record?
A: < 100 nM

Q: For `O=C(Nc1ccc(F)c(F)c1)N1Cc2c(-c3cscn3)cnn2[C@@H]2CCC[C@@H]21` [Example 14], which EC50 (HBV) is on record?
A: < 100 nM

Q: With `O=C(Nc1ccc(F)c(Cl)c1)N1Cc2c(-c3ccc(F)cc3)cnn2[C@H]2CCC[C@H]21` [Example 3] as the molecule, how does the EC50 (HBV) read?
A: > 200 nM

Q: For `CC1(C)OC(=O)N(c2cnn3c2CN(C(=O)Nc2cc(F)c(F)c(F)c2)[C@H]2CCC[C@H]23)[C@H]1Cc1ccccc1` [Example 70], which EC50 (HBV) is on record?
A: < 100 nM

Q: Which EC50 (HBV) does the source give for `O=C(Nc1cc(F)c(F)c(F)c1)N1Cc2c(N3C(=O)OC[C@H]3C3CC3)cnn2[C@@H]2CCC[C@@H]21` [Example 59] here?
A: < 100 nM

Q: Which EC50 (HBV) does the source give for `O=C(Nc1ccc(F)c(F)c1)N1Cc2c(-c3ccc(F)cc3)cnn2[C@H]2CCC[C@H]21` [Example 2] here?
A: > 200 nM

Q: With `O=C1OC(c2ccccn2)CN1c1cnn2c1CN(C(=O)Nc1cc(F)c(F)c(F)c1)[C@H]1CCC[C@H]12` (some centres unmarked) [Example 45] as the molecule, how does the EC50 (HBV) read?
A: < 100 nM
